Measured values: paper PMC7764795, “Physiological Response of Corynebacterium glutamicum to Indole” (Microorganisms, 2020)

Molecular target: T1, Cg3388 (IhtR) (Corynebacterium glutamicum, UniProt Q8NL89)
T1 construct: gene Cgl3059; Cg3388 with N-terminal His-tag kept (pET16b-cg3388), E. coli BL21(DE3), Ni-NTA
T1 sequence (Q8NL89 1-287): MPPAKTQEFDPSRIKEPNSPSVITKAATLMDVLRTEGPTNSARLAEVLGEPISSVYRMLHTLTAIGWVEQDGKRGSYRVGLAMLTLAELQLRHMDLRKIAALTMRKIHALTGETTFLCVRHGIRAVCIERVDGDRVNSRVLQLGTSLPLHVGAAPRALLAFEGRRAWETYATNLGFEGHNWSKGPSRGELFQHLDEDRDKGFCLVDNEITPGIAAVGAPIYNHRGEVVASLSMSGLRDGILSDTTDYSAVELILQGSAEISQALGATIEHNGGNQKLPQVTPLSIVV
Test: EMSA, release of target DNA by effector
Type: binding
Conditions: threshold, not a constant; Cg3388 in 153-fold molar excess over 45 ng cg3388-iolT2 intergenic DNA; pH 7.5, 10 mM MgCl2, room temperature; effector (inducer) of repressor

Row | SMILES | concentration above which DNA binding is interfered with
1 | Oc1ccc(O)cc1 [hydroquinone] | > 0.5 mM
2 | Oc1ccc(O)c(O)c1 [1,2,4-trihydroxybenzene] | > 0.05 mM
3 | c1ccc2[nH]ccc2c1 [indole] | > 4 mM
